Source: patent EP2753335B1, “AN ANTHRACYCLINE FOR THE TREATMENT OF SEPSIS” (Instituto de Medicina Molecular, priority 2011, dated 2013)
Where a name gives a salt, the structure may show the parent alone. Read-outs that look alike come from different tables or passages of the source. Starred links: 1 amine or outer side, 2 acyl side, 3 side chain; linkers in the order of their positions; H or OH if unused. Positions of bridges follow the written chain, without caps; N, C: chain ends. Non-standard residues stand in square brackets, D forms with d. Residues, ends and D or L forms follow the SMILES beside them. Chains are numbered I, II in the order given. Actinocin(9to1) = Cc1c2oc3c(C)ccc(C(=O)[*:1])c3nc-2c(C(=O)[*:2])c(N)c1=O; NMeV = CN[C@H](C(=O)O)C(C)C; Sar = CNCC(=O)O

Tests used:
TNF = assay: In vitro chemical screen (Spectrum collection): TNF secretion by E. coli challenged THP-1 cells, DAS-ELISA; assay type: cell-based, human
Description: (§1) We identified 45 leading candidates (Figure 1A and Table I) that inhibited both cytokines.
(§2) THP-1 human monocytes (American Tissue Culture Collection-ATCC TIB-202) were plated in 96 well plates at 10^6 cell/ml and incubated with each one of ∼2320 compounds included in the Spectrum collection (Microsource Discovery Systems, Gaylordsville, CT) at 10µM for 1 hour. Cells were then challenged with 4% PFA-fixed DH5α E.coli at a Multiplicity of Infection (MOI) of 20 bacterial cells per THP-1 cell for an additional 24 hours. The cell supernatants were collected and IL-1β and TNF cytokines quantified by DAS-ELISA, using Human IL-1β/IL-1F2 DuoSet® and Human TNF DuoSet® (R&D Systems ®), respectively, according to company's protocol.
(§3) We generated a working subset of The RNAi Consortium (TRC) shRNA lentiviral vector library ^33,33 that allows for the silencing of most of the genes that are either human kinases or phosphatases. This subset was composed of 1440 individually arrayed lentiviral shRNA vectors targeting ∼700 genes, after selecting the most efficient shRNAs (two on average) based on available silencing efficiency data from the Broad Institute of MIT and Harvard. THP-1 cells were plated in 96 well plates at 10^6 cell/ml and infected with shRNA-expressing lentivirus. 48 hrs later infected cells were selected with puromycin. After the 3 days of selection, plates were duplicated. One of the plates was used to measure the cell number using Alamar Blue® cell viability assay (Invitrogeia®), according to manufacturer's instructions. In the other plate, cells were stimulated with 4% PFA-fixed DH5α E.coli at a Multiplicity of Infection (MOI) of 20 bacterial cells per THP-1 cell. Twenty-four hours after stimulation, cell supernatants were collected and IL-1β and TNF cytokines quantified by DAS-ELISA. All data values from IL-1β and TNF secretion assays were normalized by dividing the amount of IL-1β and TNF in the conditioned media 24, 12, 8, 6, 4 or 2 hrs after E. coli stimulation by the number of cells in each well and then by the average concentration per cell of the plate. Results were logarithmic natural transformed. Scores were sorted in ascending order and graphed. We calculated 1.5 SDEVs above and below the mean to identify the genes that changed IL-1β and TNF secretion when silenced. The same approach was used to identify the compounds that changed IL-1β and TNF secretion. The selected genes were submitted to two or more rounds of phenotypic validation.

IL-1β = assay: In vitro chemical screen (Spectrum collection): IL-1β secretion by E. coli challenged THP-1 cells, DAS-ELISA; assay type: cell-based, human
Description: as §1, §2, §3

[1] = THP-1 cells, 10µM compound for 1 hour, then PFA-fixed E. coli (MOI 20) for 24 hours

Compound	Z score TNFa (TNF; [1])	Z score IL1b (IL-1β; [1])	Z score TNFa (TNF)	Z score IL1b (IL-1β)
C[C@@H]1C[C@H]2[C@@H]3CCC4=CC(=O)C=C[C@]4(C)[C@@]3(F)[C@@H](O)C[C@]2(C)[C@H]1C(=O)CO [Desoxymetasone]	-2,417754689	-0,995122645		
Colistin sulfate	-3,457325884	-0,918619053		
CC(C)=CCC[C@]1(C)C=Cc2c(O)c3c(c(CC=C(C)C)c2O1)O[C@]12C(=C[C@@H]4CC1C(C)(C)O[C@@]2(C/C=C(/C)C(N)=O)C4=O)C3=O [Gambogic acid amide]	-3,013926221	-1,517154207		
O=C1C=CC(=O)c2ccccc21 [1,4-naphthoquinone]	-2,77797604	-1,349015947		
COC1=CC(=O)C(O)=C/C1=C\C=C\c1ccccc1 [Obtusaquinone]	-3,829374842	-1,532189516		
CC(C)=CC1C(C(=O)OCc2cccc(Oc3ccccc3)c2)C1(C)C (stereo not shown) [Phenothrin]	-2,810792588	-0,983918754		
CCCCCCc1ccc(O)cc1O.Nc1c2ccccc2nc2ccccc12 [Acrisorcin]	-3,10607388	-0,959612692		
CC(=O)Oc1c2c(c(CC=C(C)C)c3c1C(=O)C1=C[C@@H]4CC5C(C)(C)OC(C/C=C(\C)C(=O)O)(C4=O)[C@@]15O3)OC(C)(CCC=C(C)C)C=C2 (stereo partly shown) [Acetyl isogambogic acid]	-3,056795183	-1,48116787		
CC[C@@]1(O)C[C@H](O[C@H]2C[C@H](N(C)C)[C@H](O)[C@H](C)O2)c2c(cc3c(c2O)C(=O)c2c(O)ccc(O)c2C3=O)[C@H]1C(=O)OC [Pyrromycin]	-2,980583694	-1,456377283		
Gramicidin	-2,91855912	-1,84556962		
C=C1C(=O)O[C@@H]2C[C@@]3(C)CCC[C@H](C)C3=C[C@H]12 [Helenine]	-2,683894042	-0,943744357		
COC(=O)[C@]1(C)CC[C@]2(C)CC[C@]3(C)C4=CC=C5C(=CC(=O)C(O)=C5C)[C@]4(C)CC[C@@]3(C)[C@@H]2C1 [Pristimerin]	-3,474946679	-0,952562058		
CN(C)c1ccc(C(=C2C=CC(=[N+](C)C)C=C2)c2ccc(N(C)C)cc2)cc1 [Gentian violet]	-2,696385799	-1,835724332		
CC(=O)OCC(=O)[C@@]1(O)[C@@H](C)C[C@H]2[C@@H]3CCC4=CC(=O)C=C[C@]4(C)[C@@]3(F)[C@@H](O)C[C@@]21C [Betamethasone acetate]	-2,560814606	-0,950513609		
Pyrithione zinc	-2,951809549	-1,872292546		
C[C@H]1CC[C@]2(NC1)O[C@H]1C[C@H]3[C@@H]4CC[C@H]5C[C@@H](O[C@@H]6O[C@H](CO)[C@H](O[C@@H]7O[C@H](CO)[C@@H](O)[C@H](O[C@@H]8OC[C@@H](O)[C@H](O)[C@H]8O)[C@H]7O[C@@H]7O[C@H](CO)[C@@H](O)[C@H](O)[C@H]7O)[C@H](O)[C@H]6O)CC[C@]5(C)[C@H]4CC[C@]3(C)[C@H]1[C@@H]2C [Tomatine]	-4,440219344	-2,626087357		
CC(=O)O[C@@H]1C[C@@]2(C)[C@H](c3ccoc3)C[C@H]3O[C@]32[C@]2(C)C(=O)C(O)=C3C(C)(C)C(=O)C=C[C@]3(C)[C@@H]12 [Anthothecol]	-2,834385142	-1,868706598		
CCC(=O)OCC(=O)[C@@]1(OC(=O)CC)[C@H](C)C[C@H]2[C@H]3[C@H]([C@@H](O)C[C@@]21C)[C@@]1(C)C=CC(=O)C=C1C[C@H]3Cl [Alclometazone dipropionate]	-1,999200408	-0,922964076		
CC(C)=CCC[C@]1(C)C=Cc2c(O)c3c(c(CC=C(C)C)c2O1)O[C@]12C(=C[C@@H]4C[C@H]1C(C)(C)O[C@@]2(C/C=C(/C)C(=O)O)C4=O)C3=O [Gambogic acid]	-3,862359373	-1,529656531		
Cc1cc(/C=C/c2ccc3cc(N(C)C)ccc3[n+]2C)c(C)n1-c1ccccc1 [Pyrvinium pamoate]	-2,268148981	-1,683811286		

Compound	Z score TNFa (TNF; [1])	Z score IL1b (IL-1β; [1])	Z score TNFa (TNF)	Z score IL1b (IL-1β)
CC(C)=CCCC1(C)C=Cc2c(O)c3c(c(CC=C(C)C)c2O1)OC12C(=CC4CC1C(C)(C)OC2(C/C=C(/C)C(=O)O)C4O)C3=O (stereo not shown) [Dihydrogambogic acid]	-2,488781431	-1,48996453		
O=C1c2c(O)ccc(O)c2C(=O)c2c(NCCNCCO)ccc(NCCNCCO)c21 [Mitoxanthrone hydrochloride]	-2,562729474	-1,158920135		
S=C=NCc1ccccc1 [Benzyl isothiocyanate]	-2,908582737	-1,034306584		
Mepartricin	-2,504992413	-1,081865327		
CC1(C)O[C@@H]2C[C@H]3[C@@H]4CCC5=CC(=O)C=C[C@]5(C)[C@H]4[C@@H](O)C[C@]3(C)[C@]2(C(=O)CO)O1 [Desonide]	-2,297715909	-0,945977097		
COc1cc2oc3cc(OC)c(OC)c(CC=C(C)C)c3c(=O)c2c(OC)c1CC=C(C)C [Mangostin trimethyl ether]	-3,162805301	-1,634164354		
C[C@]12C=CC(=O)C=C1CC[C@@H]1[C@@H]2[C@@H](O)C[C@@]2(C)[C@H]1CC[C@]2(O)C(=O)COC(=O)CCC(=O)O [Prednisolone hemisuccinate]	-2,72427413	-2,095888301		
Cc1c(O)c(O)cc2c1CC=C1[C@@]2(C)CC[C@@]2(C)[C@@H]3C[C@](C)(C(=O)O)CC[C@]3(C)CC[C@]12C [Dihydrocelastrol]	-3,387513735	-1,102010407		
CC1=C(O)C(=O)C=C2C1=CC=C1[C@@]2(C)CC[C@@]2(C)[C@@H]3C[C@](C)(C(=O)O)CC[C@]3(C)CC[C@]12C [Celastrol]	-2,941287145	-1,499560887		
C=C1C(=O)O[C@@H]2[C@H]3O[C@]3(C)CC/C=C(\C)CC[C@@H]12 [parthenolide]	-2,842267433	-0,921962794		
CC[C@@]1(O)C[C@H](O[C@H]2C[C@H](N(C)C)[C@H](O)[C@H](C)O2)c2c(cc3c(c2O)C(=O)c2c(O)cccc2C3=O)[C@H]1C(=O)OC [Aklavine hydrochloride]	-3,511681732	-1,408917561		
C[n+]1cc2c3c(ccc2c2ccc4cc5c(cc4c21)OCO5)OCO3 [Sanguinarine sulfate]	-2,651620816	-1,160017114		
C[C@H](NCCc1ccc(O)cc1)[C@H](O)c1ccc(O)cc1 (racemic) [Ritodrine hydrochloriide]	-2,149761571	-1,268303571		
CC1(C)C(=O)C=C[C@]2(C)[C@H]3CC[C@@]4(C)[C@H](c5ccoc5)OC(=O)[C@H]5O[C@]54[C@]3(C)C=C[C@@H]12 [7-desacetoxy-6,7-dehydrogedunin]	-2,517707805	-1,789647817		
Cc1c2oc3c(C)ccc(C(=O)N[C@@H]4C(=O)N[C@H](C(C)C)C(=O)N5CCC[C@H]5C(=O)N(C)CC(=O)N(C)[C@@H](C(C)C)C(=O)O[C@@H]4C)c3nc-2c(C(=O)N[C@@H]2C(=O)N[C@H](C(C)C)C(=O)N3CCC[C@H]3C(=O)N(C)CC(=O)N(C)[C@@H](C(C)C)C(=O)O[C@@H]2C)c(N)c1=O [Dactinomycin] (I: T[dV]P[Sar][NMeV] / II: T[dV]P[Sar][NMeV]; ester I:1-I:C, II:1-II:C; linker I:N-II:N via Actinocin(9to1))	-4,13760156	-1,187827575		
O=C1C=C2C(=CCOC2O)O1 (stereo not shown) [Patulin]			-2,874616362	-0,902703858
CCOc1ccc2nc3cc(N)ccc3c(N)c2c1 [Ethacridine lactate]	-2,218841761	-1,389229184		
CCCCC(=O)O[C@]1(C(=O)CO)CC[C@H]2[C@@H]3CCC4=CC(=O)CC[C@]4(C)[C@H]3[C@@H](O)C[C@@]21C [Hydrocortisone valerate]	-2,794271243	-2,722889618		
C=C1C(=O)O[C@H]2C[C@@H]1C(OC(C)=O)C/C(C)=C/CC/C(C)=C/CC[C@@]2(C)O (stereo partly shown) [Crassin acetate]	-4,448741528	-2,126298968		
CCCCC(CC)CNC(=N)NC(=N)NCCCCCCNC(=N)NC(=N)NCC(CC)CCCC (stereo not shown) [Alexidine hydrochloride]	-2,648173863			
